# Test results from the METLIN SMRT retention time set (Domingo-Almenara et al. 2019).
# Test: gradient 5% acetonitrile 3 min, to 50% in 2 min, to 85% in 15 min, held 3 min, 100 µL/min
# Settings: column: Zorbax Extend-C18 2.1 x 50 mm; eluents: water / acetonitrile, 0.1% formic acid
# Procedure, shortened: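 Using water and acetonitrile that each contained 0.1% formic acid, mixtures of ~100 pure standards were separated at 100 μL/min on a Zorbax Extend-C18 column (2.1 × 50 mm, 1.8 μm). The HPLC fed a quadrupole time-of-flight mass spectrometer working in positive and negative ionization mode, with dead and dwell volumes of 40 μL and 900 μL. Data were acquired over 3 months. Retention time was read from computationally picked adduct peaks after manual inspection of each.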
row,RP-LC retention time [s],Structure (SMILES)
1,821,Cc1ccc2c(Nc3ccccc3Cl)c(-c3nc(C)no3)cnc2n1
2,594,COC(=O)c1c(C)[nH]c(C(=O)N2CCC(CC(=O)NCCN3CCCCCC3)CC2)c1C
3,973,COCCN(CC(=O)N1CCc2sccc2C1COc1ccccc1C)C(=O)CC(C)C (centres undefined)
4,752,CCOc1c(C)cc(S(=O)(=O)NCC(C)(O)COC)cc1C (centres undefined)
5,958,CC(C)NC(=O)N1CCCC(c2cccc(C(=O)NCc3cccc(C(F)(F)F)c3)c2)C1 (centres undefined)
6,618,Cn1c(N2CCCC(C(=O)N3CCN(c4ncccn4)CC3)C2)cc(=O)n(C)c1=O (centres undefined)
7,1160,Cc1ccc2c(c1)OCC(=O)N2Cc1nc(-c2ccc(C)c(C)c2)no1
8,917,O=C(Nc1ccc(F)c(Cl)c1)C1CCCN(c2ncnc3c2nc2n3CCCCC2)C1 (centres undefined)
9,941,O=C(NCCS(=O)(=O)N1CCN(c2cccc(Cl)c2)CC1)c1cc2ccccc2o1
10,841,O=c1c2nc(-c3ccccc3)cn2ccn1-c1ccc(Cl)cc1
11,617,O=C(c1ccc(F)c(F)c1)N1CCN(c2nc(CN3CCOCC3)cs2)CC1
12,714,O=C(NC1CCN(c2cc(-c3ccc(F)cc3)[nH]n2)C1)c1ccc2cc[nH]c2c1 (centres undefined)
13,704,CCc1cccc(NC(=O)C2(C)Oc3cccnc3NC2=O)c1 (centres undefined)
14,799,CCCn1cc(CCNC(=O)c2ccc(C)cc2C)c2cccnc21
15,617,Cc1ccc(NC(=O)Cn2c(N)nc(C)cc2=O)c(C)c1
16,613,CCc1cc(N2CCN(C(=O)COc3ccc(OC)cc3)CC2)nc2nnc(C)n12
17,893,Cc1ccc(-n2c(N3CCCC(C(=O)NCc4ccc(C)o4)C3)nc3ccsc3c2=O)cc1 (centres undefined)
18,728,CCc1ccc(NC(=O)N2C[C@@H](F)C[C@H]2C(=O)N2CCCCC2)cc1
19,828,CC(C(=O)O)c1ccc(N2Cc3ccccc3C2=O)cc1 (centres undefined)
20,584,O=C(NCC1CCN(Cc2ccco2)CC1)C(=O)Nc1ccc(F)c(Cl)c1
21,1200,Cc1ccc(Cl)cc1N1CCN(c2ccc3cc(S(=O)(=O)N4CCOCC4)ccc3n2)CC1
22,909,CCOc1ccc(NC(=O)Nc2cc(C(C)C)c(O)cc2C)cc1

row,RP-LC retention time [s],Structure (SMILES)
1,947,O=C(Cn1nc2nc(N3CCCC3)ccn2c1=O)NCCc1ccccc1
2,838,COc1ccccc1N1CCN(CC(O)COc2cccc3ccccc23)CC1 (centres undefined)
3,881,CN(C)c1cccc(C(=O)N2CCN(C(=O)c3nnn4c3COC(c3ccc(Cl)cc3)C4)CC2)c1 (centres undefined)
4,694,COc1ccc(OC)c(NC(=O)C2CCN(c3cc(N4CCSCC4)ncn3)CC2)c1
5,711,O=C(CCS(=O)(=O)c1ccccc1)N1CCN(CC(F)(F)F)CC1
6,729,CCn1cc(S(=O)(=O)N2CCC3(CC2)CN(Cc2ccc(OC)cc2)C3=O)cn1
7,870,Cc1nn(CC(=O)NCCC2=CCCCC2)c(=O)c2c(C)n(-c3ccccc3)nc12
8,582,CCN(CC)C(=O)N1CCC2(CC1)CC(N1CCN(c3ccccc3)CC1)CCO2 (centres undefined)
9,598,CCn1nc(CNC(=O)CSc2ccncc2)c2ccccc21
10,842,CC(C)n1cnc(S(=O)(=O)N2CCCC(C(=O)Nc3cccc(Cl)c3)C2)c1 (centres undefined)
11,798,COc1ccc(Cl)cc1NC(=O)Cn1cnc2nc3c(cc2c1=O)CCCC3
12,1020,Cc1cccc(NC(=O)N2CCCC2c2nc(-c3cccc(F)c3)no2)c1 (centres undefined)
13,904,Cn1ncc2c3ccccc3n(CC(=O)NCCc3ccco3)c2c1=O
14,768,Cc1ccc(C(=O)Nc2ccc(S(N)(=O)=O)cc2)cc1Br
15,568,CNC(=O)[C@@H]1CN(C(=O)CCc2c(C)noc2C)C[C@H]1c1n[nH]c(C)n1
16,824,COc1ccc(CNC(=O)c2c(C)oc3ccn(C)c(=O)c23)cc1
17,840,CC1CCC(NC(=O)C2CCCN2S(=O)(=O)c2cc3c(cc2Cl)NC(=O)CO3)CC1 (centres undefined)
18,700,Cc1cc(=O)n(CC(=O)Nc2ccc(F)c(F)c2)c(N2CCCCC2)n1
19,1080,Cc1nn(C)c2nc(OC(C)C(=O)NCCc3ccc(Cl)cc3)cc(C(F)(F)F)c12 (centres undefined)
20,626,O=C(NN1CCCCC1)NN1CCCCC1
21,669,CC(=O)N1CCN(Cc2nc(-c3ccc(N4CCCC(C)C4)nc3)no2)CC1 (centres undefined)
22,786,CC(C)CN1CCn2cc(S(=O)(=O)Nc3cccc(F)c3)cc2C1=O
